Tests used:
[1] = tested on: early life stage zebrafish (Danio rerio) embryos; experiment: Developmental toxicity morphology screen, sealed rotating vial exposure; format: in vivo; parameters: bmd, MO24 / bmd, MORT / bmd, ANY_ / bmd, AXIS / bmd, CRAN / bmd, EDEM / bmd, LTRK / bmd, MUSC / bmdL, ANY_ / bmdU, ANY_ / bmdL, AXIS / bmdU, AXIS / bmdL, CRAN / bmdU, CRAN / bmdL, EDEM / bmdU, EDEM / bmdL, LTRK / bmdU, LTRK / bmdL, MO24 / bmdU, MO24 / bmdL, MORT / bmdU, MORT: unit not given here
Protocol: (§1) When embryos were 6 hpf they were bleached in groups of 1000 or less to limit bacterial growth in sealed vials. Embryos were placed in a strainer for transfer between solutions in 500 mL containers. […] Pools of eight embryos were placed into 2 mL clear glass screw cap exposure vials with polyvinyl-faced pulp liner (Avantar Radnor, PA, United States) using a glass Pasteur pipette. Excess EM was removed, and 2 mL of fresh EM was immediately added. A total of 10 uL of 200x working stock (in DMSO) was added to each vial, then immediately capped and inverted three times to mix. […] Vials were loaded into a custom 3D printed vial holder for slow end-over-end rotation in a dark 28 °C incubator overnight. […] At 24 hpf, embryos were removed from exposure vials and singulated into 96-well plates loaded with 100 μL chemical-free EM. Each exposure vial group was maintained in plate columns. After loading into 96-well plates, embryos were assessed for 24-hour mortality. For the remainder of the exposure, plates were kept stationary at 28 °C in the dark, until 120 hpf when morphology screening and the larval photo motor response (LPR) assay were conducted, section 2.3.2 and section 2.3.3, respectively.
Each treatment group was replicated over four vials, resulting in 32 embryos per treatment, split over two replicate 96-well plates per chemical. […] All reported concentrations were nominal water concentrations and are included in SI-T4.
At 24 hpf embryos were assessed for mortality (MO24). At 120 hpf embryos were assessed for abnormality in […] morphological endpoints: mortality (MORT), edemas (EDEM), bent axis (AXIS), touch response (TCHR), craniofacial (CRAN), muscular/cardiovascular (MUSC), lower trunk (LRTK), brain (BRAN), skin (SKIN), and notochord malformations (NC). Morphological assessments were made by a team of three to four individuals. The team was blinded to the identity, plate layout, and concentrations of the chemicals, thereby minimizing bias in morphological screening assessment. To ensure the assessments were consistent, concentration–response reproducibility of a parathion ethyl quality control plate was performed along with each experimental exposure set up. Details of all measured endpoints can be found at Developmental toxicity zebrafish phenotype atlas. […] Each endpoint was scored as a binary presence/absence and scores were compiled into an “Any effect” endpoint, the presence of abnormality in any individual endpoint.
The Any effect percent was used to calculate the BMC50, 50 % change relative to the background for each endpoint and chemical. All values were reported as the nominal exposure concentration.

[2] = tested on: zebrafish larvae, 120 hpf; experiment: Larval photomotor response (LPR) assay after vial exposure; format: in vivo, Danio rerio; conditions: LPR
Protocol: as §1
Each treatment group was replicated over four vials, resulting in 32 embryos per treatment, split over two replicate 96-well plates per chemical. […] Vial groups of plated larvae were tracked to assess the impact of the vial on the results. All reported concentrations were nominal water concentrations and are included in SI-T4.
The LPR assay was conducted at 120 hpf. […] Larval movement was tracked throughout minutes 6–24. Animals dead or morphologically abnormal were excluded from the analysis, and if more than 30 % of the wells in a treatment group were excluded, the treatment was removed.
Movement values were binned into 6s intervals, log normalized and used to calculate area under the curve (AUC). AUC values from the first cycle after calibration were used to calculate the LEL for each period (light and dark).

[3] = Fig. 2 heatmap; nominal concentration, exposure 6-24 hpf in vials, summary of all endpoints
[4] = benchmark dose; morphology endpoint ANY_ (any effect)
[5] = period dark, round 1, conc 3.125
[6] = period dark, round 1, conc 6.25
[7] = period dark, round 1, conc 12.5
[8] = period light, round 1, conc 3.125
[9] = period light, round 1, conc 6.25
[10] = period light, round 1, conc 12.5
[11] = endpoint MORT; lower limit of benchmark dose
[12] = endpoint MORT; upper limit of benchmark dose
[13] = morphology endpoint EDEM; benchmark dose
[14] = morphology endpoint EDEM; lower limit of benchmark dose
[15] = morphology endpoint EDEM; upper limit of benchmark dose

CCc1ccc2cc(CC)ccc2c1 [2,6-diethylnaphthalene]
BMC50 AXIS (curved or bent body axis at 120 hpf) ([1]; Fig. 2; nominal concentration): 46.9 µM | BMC50 MO24 (mortality at 24 hpf) ([1]; Fig. 2; nominal concentration): 38.1 µM | BMC50 MORT (mortality at 120 hpf) ([1]; Fig. 2; nominal concentration): 39.2 µM | BMC50 Any effect [1, 3]: 18.8 µM | any effect BMD50 ([1]; SI-T5): 18.77 µM | bmd, MO24 ([1]; benchmark dose; endpoint MO24): 38.0576 | bmd, MORT ([1]; benchmark dose; endpoint MORT): 39.1942 | bmd, ANY_ [1, 4]: 18.7673 | bmd, AXIS ([1]; benchmark dose; morphology endpoint AXIS): 46.8649 | fold_change [2, 5]: 0.178 | fold_change [2, 6]: -0.04909 | fold_change [2, 7]: -0.5724 | fold_change ([2]; period dark, round 1, conc 25): -0.5473 | fold_change [2, 8]: -0.07519 | fold_change [2, 9]: 0.5876 | fold_change [2, 10]: 0.2476 | fold_change ([2]; period light, round 1, conc 25): 0.1223

CC(C)(C)c1ccc2ccc(C(C)(C)C)cc2c1 [2,7-di-tert-butylnaphthalene]
BMC50 EDEM (pericardial and/or yolk sac edema at 120 hpf) ([1]; Fig. 2; nominal concentration): 33.6 µM | BMC50 MO24 (mortality at 24 hpf) ([1]; Fig. 2; nominal concentration): no MO24 BMC50 | BMC50 MORT (mortality at 120 hpf) ([1]; Fig. 2; nominal concentration): 41.3 µM | BMC50 Any effect [1, 3]: 24.7 µM | any effect BMD50 ([1]; SI-T5): 24.66 µM | bmd, ANY_ [1, 4]: 24.6598 | bmd, MORT ([1]; endpoint MORT; benchmark dose): 41.3049 | bmdL, MORT [1, 11]: 34.7649 | bmdU, MORT [1, 12]: 51.9197 | bmd, EDEM [1, 13]: 33.6463 | bmdL, EDEM [1, 14]: 26.4386 | bmdU, EDEM [1, 15]: 67.8341 | fold_change [2, 5]: -0.2175 | fold_change [2, 6]: -0.4542 | fold_change [2, 7]: -0.5803 | fold_change ([2]; period dark, round 1, conc 25): -1.44 | fold_change [2, 8]: 0.7527 | fold_change [2, 9]: 0.7301 | fold_change [2, 10]: 0.5841 | fold_change ([2]; period light, round 1, conc 25): 0.3464

CCCCc1ccc2ccccc2c1 [2-butylnaphthalene]
BMC50 AXIS (curved or bent body axis at 120 hpf) ([1]; Fig. 2; nominal concentration): 31.7 µM | BMC50 CRAN (craniofacial malformation at 120 hpf) ([1]; Fig. 2; nominal concentration): 32.3 µM | BMC50 EDEM (pericardial and/or yolk sac edema at 120 hpf) ([1]; Fig. 2; nominal concentration): 37.1 µM | BMC50 LTRK (lower trunk and/or caudal fin at 120 hpf) ([1]; Fig. 2; nominal concentration): 32.6 µM | BMC50 MO24 (mortality at 24 hpf) ([1]; Fig. 2; nominal concentration): 45.9 µM | BMC50 MORT (mortality at 120 hpf) ([1]; Fig. 2; nominal concentration): 29.2 µM | BMC50 Any effect [1, 3]: 13.8 µM | any effect BMD50 ([1]; SI-T5): 13.76 µM | bmd, MO24 ([1]; endpoint MO24; benchmark dose): 45.9226 | bmdL, MO24 ([1]; endpoint MO24; lower limit of benchmark dose): 34.5575 | bmdU, MO24 ([1]; endpoint MO24; upper limit of benchmark dose): 71.8256 | bmd, MORT ([1]; endpoint MORT; benchmark dose): 29.2083 | bmdL, MORT [1, 11]: 24.1073 | bmdU, MORT [1, 12]: 36.5916 | bmd, ANY_ ([1]; morphology endpoint ANY_; benchmark dose): 13.7563 | bmdL, ANY_ ([1]; morphology endpoint ANY_; lower limit of benchmark dose): 11.3562 | bmdU, ANY_ ([1]; morphology endpoint ANY_; upper limit of benchmark dose): 16.7056 | bmd, AXIS ([1]; morphology endpoint AXIS; benchmark dose): 31.7332 | bmdL, AXIS ([1]; morphology endpoint AXIS; lower limit of benchmark dose): 20.8074 | bmdU, AXIS ([1]; morphology endpoint AXIS; upper limit of benchmark dose): 68.8189 | bmd, CRAN ([1]; morphology endpoint CRAN; benchmark dose): 32.2639 | bmdL, CRAN ([1]; morphology endpoint CRAN; lower limit of benchmark dose): 21.7357 | bmdU, CRAN ([1]; morphology endpoint CRAN; upper limit of benchmark dose): 64.257 | bmd, EDEM [1, 13]: 37.0933 | bmdL, EDEM [1, 14]: 25.0511 | bmdU, EDEM [1, 15]: 73.9212 | bmd, LTRK ([1]; morphology endpoint LTRK; benchmark dose): 32.6419 | bmdL, LTRK ([1]; morphology endpoint LTRK; lower limit of benchmark dose): 22.6339 | bmdU, LTRK ([1]; morphology endpoint LTRK; upper limit of benchmark dose): 59.8583 | fold_change [2, 5]: -0.7788 | fold_change [2, 6]: -1.395 | fold_change [2, 7]: -2.279 | fold_change [2, 8]: 0.2651 | fold_change [2, 9]: -0.6707 | fold_change [2, 10]: 0.432

Cc1ccc2ccccc2c1 [2-methylnaphthalene]
morphological effects (BMC50 for any morphological endpoint) ([1]; 0-50 μM, result in words): no morphological BMC50 values | fold_change [2, 5]: 0.03896 | fold_change [2, 6]: -0.06284 | fold_change [2, 7]: 0.2024 | fold_change ([2]; period dark, round 1, conc 25): 0.07059 | fold_change ([2]; period dark, round 1, conc 50): -0.2156 | fold_change [2, 8]: -0.3603 | fold_change [2, 9]: -0.05115 | fold_change [2, 10]: 0.6486 | fold_change ([2]; period light, round 1, conc 25): 0.2057 | fold_change ([2]; period light, round 1, conc 50): 0.2253

Reference: publication PMC12560828, “Chemical structure drives developmental toxicity of alkyl-substituted naphthalenes in zebrafish” (Environment international, 2025)
